Test results as given in ChEMBL document CHEMBL5360610, “N-Alkyl Carbamoylimidazoles as Versatile Synthons for the Synthesis of Urea-Based PSMA Inhibitors” (ACS Med Chem Lett, 2023).
Active and inactive are the calls of the source. No cut-off for these calls is given here.

How the values were obtained:
[1] = biological target: T1, Glutamate carboxypeptidase 2 (Homo sapiens, UniProt Q04609); assay: Displacement of [18F]PSMA-1007 from human PSMA expressed in human LNCaP cells at 0.1 to 100000 nM by competitive binding assay; format: cell-based; conditions: dose 0.1-100000 nM
Target sequence in this assay (Q04609 whole entry, looked up): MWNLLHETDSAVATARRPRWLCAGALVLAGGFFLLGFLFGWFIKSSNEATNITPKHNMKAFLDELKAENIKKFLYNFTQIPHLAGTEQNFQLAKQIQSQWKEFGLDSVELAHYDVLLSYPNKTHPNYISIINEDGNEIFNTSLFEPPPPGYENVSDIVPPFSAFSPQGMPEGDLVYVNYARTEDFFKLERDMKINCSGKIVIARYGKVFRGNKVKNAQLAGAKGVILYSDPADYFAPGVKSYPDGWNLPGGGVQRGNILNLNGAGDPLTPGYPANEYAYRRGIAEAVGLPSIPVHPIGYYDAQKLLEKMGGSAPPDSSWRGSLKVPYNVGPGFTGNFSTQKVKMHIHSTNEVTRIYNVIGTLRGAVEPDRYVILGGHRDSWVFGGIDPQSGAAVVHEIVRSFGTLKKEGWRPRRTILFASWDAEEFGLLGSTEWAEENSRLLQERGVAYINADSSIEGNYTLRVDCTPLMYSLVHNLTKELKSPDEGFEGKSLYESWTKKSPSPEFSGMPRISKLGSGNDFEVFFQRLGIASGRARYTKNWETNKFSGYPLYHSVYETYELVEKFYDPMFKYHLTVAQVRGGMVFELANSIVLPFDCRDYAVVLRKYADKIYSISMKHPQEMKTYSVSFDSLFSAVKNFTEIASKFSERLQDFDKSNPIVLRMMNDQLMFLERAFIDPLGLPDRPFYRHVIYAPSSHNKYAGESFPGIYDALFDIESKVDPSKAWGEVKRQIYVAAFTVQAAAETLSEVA

[2] = biological target: T1, Glutamate carboxypeptidase 2; assay: Displacement of [18F]PSMA-1007 from human PSMA expressed in human LNCaP cells by competitive binding assay; format: cell-based
Target sequence in this assay (Q04609 whole entry): as the sequence (Q04609 whole entry, looked up) above

| Structure (SMILES) | inhibition [1] | IC50 [2] |
| --- | --- | --- |
| O=C(Nc1scc(C(=O)O)c1C(=O)O)N[C@@H](CCCCNC(=O)c1cccc(F)n1)C(=O)O | inactive |  |
| O=C(O)CC[C@H](NC(=O)N[C@@H](CCCC(=O)NCc1ccc(F)cc1)C(=O)O)C(=O)O |  | 1500 nM |
| O=C(O)CC[C@H](NC(=O)N[C@@H](CCCC(=O)Nc1ccc(F)nc1)C(=O)O)C(=O)O |  | 90 nM |
| O=C(Nc1scc(C(=O)O)c1C(=O)O)N[C@@H](CCCCNC(=O)c1ccc(F)cc1)C(=O)O | inactive |  |

Next, values leading:

| inhibition [1] | IC50 [2] | Structure (SMILES) |
| --- | --- | --- |
|  | 13 nM | O=C(O)CC[C@H](CC(=O)N[C@@H](CCCCNC(=O)[C@H](Cc1ccccc1)NC(=O)COc1ccc(C[C@H](NC(=O)CCC(=O)CO/N=C/c2ccc(F)cc2)C(=O)O)cc1)C(=O)O)C(=O)O |
|  | 4 nM | O=C(O)CC[C@H](NC(=O)N[C@@H](CCCCNC(=O)[C@H](Cc1ccc2ccccc2c1)NC(=O)[C@H]1CC[C@H](CNC(=O)[C@H](CCC(=O)O)NC(=O)[C@H](CCC(=O)O)NC(=O)c2ccc(F)nc2)CC1)C(=O)O)C(=O)O |
